In patent publication US20110280827A1, “METHODS AND COMPOSITIONS FOR TREATING HEMATOLOGICAL MALIGNANCIES” (priority 2009, published 2011):

Tests used:
[1] = test system: AML; conditions: in combination with chemotherapy, compared to chemotherapy alone; cited from earlier work
[2] = test system: pre-B-ALL cells; conditions: in vitro; cited from earlier work
[3] = in vivo; cited from earlier work
[4] = test system: Raji B-cell lymphoma cells; assay: Disseminated Raji lymphoma model in SCID mice (survival, Kaplan-Meier); assay type: in vivo
Experimental: Four groups of 4- to 6-week-old SCID mice (8 animals each) were injected intravenously with 2×10^6 Raji B-cell lymphoma cells. The Raji cell line is a well-characterized human B-cell lymphoblastic line (CXCR4^+, CD19^+, CD20^+, CD22^+, CD52^+) derived from a patient with Burkitt's lymphoma (available from the American Tissue and Cell Collection, Manassas, Va.). Starting on day 7 after the injection, three of the four groups were administered subcutaneous AMD3465 daily (Monday-Friday regimen) at 0.1 mg/kg, 0.5 mg/kg or 1.0 mg/kg body weight.

[5] = test system: B104 B-cell lymphoma cells; assay: Disseminated B104 lymphoma model in SCID mice (survival, Kaplan-Meier); assay type: in vivo
Experimental: Five groups of 4- to 6-week-old SCID mice (8 animals each) were injected intravenously with 1×10^6 B104 B-cell lymphoma cells. […] Starting on day 7 after the injection, one group was administered CAMPATH® (alemtuzumab) weekly at 10 mg/kg; a second group was administered AMD3465 three times a week (Monday, Wednesday, Friday regimen) at 5.0 mg/kg; a third group was administered CAMPATH® (alemtuzumab) weekly at 10 mg/kg and AMD3465 three times a week (Monday, Wednesday, Friday regimen) at 1.0 mg/kg; and a fourth group was administered CAMPATH® (alemtuzumab) weekly at 10 mg/kg and AMD3465 three times a week (Monday, Wednesday, Friday regimen) at 5.0 mg/kg. […] The treatment was terminated on day 42.
Four groups of 4- to 6-week-old SCID mice (8 animals each) were injected intravenously with 1×10^6 B104 B-cell lymphoma cells. Starting on day 10 after the injection, one group was administered CAMPATH® (alemtuzumab) weekly at 10 mg/kg; a second group was administered AMD3465 daily (Monday-Friday regimen) at 5.0 mg/kg; and a third group was administered CAMPATH® (alemtuzumab) weekly at 10 mg/kg and AMD3465 daily (Monday-Friday regimen) at 5.0 mg/kg body weight.

[6] = test system: stroma-cocultured Jurkat cells, primary CLL cells, subset of AML cells harboring Flt3 mutation; conditions: in vitro, stroma coculture; cited from earlier work

| Compound | overall survival [1] | tumor burden [1] | SDF-1/CXCL12 induced chemotaxis of pre-B-ALL cells into bone marrow stroma layers [2] | cytotoxic and antiproliferative effects of vincristine and dexamethasone [2] | white blood cell count [3] | mean survival ([4]; 5.0 mg/kg AMD3465 alone daily (M-F) from day 7) | dose dependence of the survival effect ([4]; AMD3465 alone 0.1, 0.5, 1.0 mg/kg, reverse dose-response) | mean survival ([4]; AMD3465 alone s.c. daily (M-F) at 0.1, 0.5 or 1.0 mg/kg from day 7, each concentration tested, vs control) | mean survival ([5]; 5.0 mg/kg AMD3465 alone daily (M-F) from day 10) | mean survival ([5]; 5.0 mg/kg AMD3465 alone three times a week (M, W, F) from day 7) | chemotherapy-induced apoptosis [6] |
| --- | --- | --- | --- | --- | --- | --- | --- | --- | --- | --- | --- |
| c1cc(CN2CCCNCCNCCCNCC2)ccc1CN1CCCNCCNCCCNCC1 [AMD3100] | improved overall survival | decreased tumor burden | blocked | enhanced | increasing the white blood cell count |  |  |  |  |  |  |
| c1ccc(CNCc2ccc(CN3CCCNCCNCCCNCC3)cc2)nc1 [AMD3465] | improved overall survival | decreased tumor burden |  |  |  | did not have a significant effect | stronger effect observed at the lower concentrations | significantly increased | did not have a significant effect | did not have a significant effect | significantly enhanced |
